Entries after “also recorded” stand apart in the source; their conditions may differ.
Columns and labels:
[1] = test system: rat hypothalamic neuronal stem cells (NSCs); experiment: Differentiation of hypothalamic neuronal stem cells to BEP neurons in culture; format: cell-based; settings: agent alone, 0.1-10 μM
Description: Fetal brains were obtained from 17-day-old pregnant rats (Simonsen laboratories; Gilroy, […].). Mediobasal hypothalamic tissues from these rats were dissected out and cells from these tissues were dissociated, and mixed hypothalamic cell cultures were prepared as previously described (De et al. (1994) J. Biol. Chem., 269:26697-26705). Neurons were separated from glial cells by filtering mixed hypothalamic cells through a 48-μM nylon mesh. Then hypothalamic cells were sedimented at 400 g for 10 minutes; pellets were re-suspended in HEPES-buffered Dulbecco's Modified Eagle's Medium (HDMEM, 4.5 g/l glucose; Sigma, St. Louis, Mo.); and cells were cultured into poly-ornithine coated 25-cm^2 tissue culture flasks (2.5 million cells/flask) in HDMEM-containing 10% fetal bovine serum (FBS) and 1% penicillin/streptomycin. On day 2, the culture medium was replaced with HDMEM containing 10% FBS, 33.6 μg/ml uridine and 13.6 μg/ml 5-fluodeoxyuridine to prevent the overgrowth of astroglial cells. All of these chemicals were obtained from Sigma. On day 3, the culture medium was replaced with HDMEM-containing serum supplement (30 nM selenium, 20 nM progesterone, 1 μM iron-free human transferrin, 5 μM insulin, and 100 μM putrescin) and 1% penicillin/streptomycin. […] By this time, these cultures were approximately 85-90% neurons, as determined by MAP-2 positivity. […]

[2] = test system: differentiated BEP neurons; experiment: PGE1-induced BEP release and POMC expression of differentiated neurons; format: cell-based, rat; settings: PGE1 10 μM
Description: Enriched hypothalamic neurons were maintained in HDMEM, containing 10% FBS, for 3 weeks. Each week, cells were trypsinized and cultured. By the beginning of the third week, many spheres started to develop. These spheres were separated and dissociated into single cells by using trypsin/EDTA (Sigma) solution. They were then cultured in suspension or in poly-L-ornithine-coated 24-well plates (20,000 cells/well) in stem cell medium (DME F-12, […] (LIF), 0.1 μg/ml; L-glutamine, 10 mM; rat bFGF, 20 ng/ml; Mem amino acids solution, MAA, 0.5%; all of the chemicals were from Sigma except that bFGF was obtained from R&D Systems, Minneapolis, Minn.). Cells were cultured for 2 weeks, during which they grew and developed secondary spheres. Some of these cultures were used for immunocytochemical localization of nestin staining to determine whether they were neurospheres. These neurospheres were maintained in cultures for several months by regularly changing the medium and by splitting cells. The secondary spheres were re-suspended and cultured in poly-L-ornithine-coated 24-well plates (20,000/well; for physiological studies) or in poly-L-ornithine-coated 8-well permanox slides (1000 cells/slide; NaIg Nunc International Corp., IL; for histochemical studies). The differentiation experiments were performed by treating these cells for 1 week with PACAP (1-10 μM; SynPep) and dbcAMP (1-10 μM; Sigma) or a combination of both, and then in defined cell culture medium without the drugs for 1 week. At day 3, day 7 and day 14 the immunocytochemical, biochemical and/or real-time RT-PCR analyses were performed.
The immunoreactive β-endorphin levels in culture medium samples were measured by a radioimmunoassay system (De et al. (1994) J. Biol. Chem., 269:26697-26705). All the samples were dried and reconstituted in assay buffer and measured in duplicate in a single assay. The minimum amount of β-endorphin detectable was 3 pg/tube.
Expression levels of POMC mRNA in NSCs and differentiated cells were measured by a quantitative real-time RT-PCR (TaqMan assay) on an ABI PRISM 7700 Sequence Detector (PerkinElmer Applied Biosystems, Foster City, Calif.) as described previously (Chen et al. (2004) J. Neurochem., 88:1547-1554). […] The expression of POMC mRNA was detected using a POMC gene-specific primer pair and probe (TaqMan Gene Expression Assay, Rn00595020_ml; Applied Biosystems; Foster City, Calif.). […] The relative quantity of mRNA was calculated by relating the PCR threshold cycle obtained from the tested samples to relative standard curves degenerated from a serial dilution of cDNA prepared from the total RNA. The POMC mRNA level in each sample was normalized with the level of GAPDH mRNA which was measured by a control reagent (PerkinElmer Applied Biosystems). […]

[3] = test system: MADB106 cells; experiment: Pharmacologic modification of autonomic influence on immune system and lung metastasis; format: in vivo, rat; settings: for PBMC NK cell activity / macrophage migration activity: 24 hours after MADB106 inoculation, naloxone 10, MP/MET 0.8, MLA 2.5 mg/kg or saline; for effect on β-EP elimination of tumor cell lung retention: β-EP transplanted Fischer rats, naloxone 10, MP/MET 0.8, MLA 2.5 mg/kg for 8 days
Description: 48 β-EP implanted (SC) male Fischer rats and 48 control (C) male Fischer rats were divided into 8 groups, treated with saline, Naloxone (10 mg/kg body weight), Metaproterenol (MP, 0.8 mg/kg body weight), or Methyllycaconitine (MLA, 2.5 mg/kg body weight), respectively. Animals were treated with drugs for 8 days. In the second day of drug injection, animals were inoculated with MADB106 cells (100,000/0.2 ml/rat). 24 hours after tumor cell inoculation, blood was collected by orbital puncture. Plasma was collected, and PBMCs were separated for migration assay and NK cytolytic assay. 7 days after tumor inoculation, blood was taken again by orbital puncture. Plasma was collected, and PBMCs were separated for migration assay and T cell cytolytic assay. After 6 weeks, animals were sacrificed, and brains, spleens and blood were frozen. Lungs were fixed in formalin and processed to H&E staining. […] However, 7 days after tumor inoculation, there isn't a clear pattern of T cell cytolytic activity and macrophage migration activity between groups (FIGS. 30B and 30D).
It was hypothesized that the beneficial effect of BEP neuron transplants on immune function is regulated through autonomic nervous system, and that central BEP modulate peripheral immune function by inhibiting the sympathetic activity and activating the parasympathetic activity. Metaproterenol (MET) is an agonist for β-receptors, which are a class of G protein-coupled receptors that are targets of the catecholamines, especially norepinephrine and epinephrine (Dokur et al. (2004) J Neuroimmunol 5:148-57; Page et al. (2008) J Neuroimmunol 193:113-9). Methyllycaconitine (MLA) is a selective antagonist of α7 nicotine acetylcholine receptor (α7 nAChR; Wu et al. (2011) Clin Cancer Res 17:3533-41). By injecting MET and MLA i.p., the stimulation of sympathetic nerves and inhibition of parasympathetic nerves was mimicked. Naloxone, an opiate receptor antagonist, was used to test whether BEP neuronal effects is acted via opiodergic receptor (Boyadjieva et al. (2006) Alcohol Clin Exp Res 30:1761-7). Forty-eight BEP neuron-transplanted Fischer rats and 48 control rats were divided into 8 groups and treated with saline, naloxone (10 mg/kg body weight), MET (0.8 mg/kg body weight), or MLA (2.5 mg/kg body weight) for 8 days (the doses used for these drugs are recognized as effective biological doses). A day after the first injection of these agents, animals were inoculated with MADB106 cells (100,000/0.2 mL/rat). Twenty-four hours after tumor cell inoculation, blood was collected by orbital puncture. Plasma was collected, and peripheral blood mononuclear cells (PBMC) were separated for migration assay and NK cytolytic assay. These animals continued receiving the blocker treatments for 7 days. After 4 weeks they were sacrificed, their lungs were fixed in formalin and processed to H&E staining for determination of cancer pathology. Brain tissues were processed for verification of the site and viability of BEP cell transplantation.

Molecule	effect on neurosphere differentiation [1]	PBMC NK cell activity [3]	macrophage migration activity [3]	effect on β-EP elimination of tumor cell lung retention [3]	other results
CCCC(=O)Nc1ncnc2c1ncn2[C@@H]1O[C@@H]2COP(=O)(O)O[C@H]2[C@H]1OC(=O)CCC [dbcAMP, dibutyryl cAMP]	moderate effect	–	–	–	–
CCCCC[C@H](O)/C=C/[C@H]1[C@H](O)CC(=O)[C@@H]1CCCCCCC(=O)O [PGE1, prostaglandin E1]	–	–	–	–	BEP release ([2]; cells at 1 week): only moderately enhanced; POMC expression ([2]; cells at 1 week): no effect; BEP-release response ([2]; cells at 2 weeks): significantly increased; POMC-expression response ([2]; cells at 2 weeks): significantly increased
CC(C)NCC(O)c1cc(O)cc(O)c1 (stereo not drawn) [MP, Metaproterenol]	–	reversed the effect of β-EP	reversed the effect of β-EP	stopped the effect of β-EP	PBMC NK cell activity ([3]; listed as MET): moderate or strong inhibitory effect; macrophage migration activity ([3]; listed as MET): moderate or strong inhibitory effect; effect on β-EP elimination of tumor cell lung retention ([3]; listed as MET): prevented, at various degrees
CCN1C[C@]2(COC(=O)c3ccccc3N3C(=O)C[C@H](C)C3=O)CC[C@H](OC)[C@@]34[C@@H]5C[C@H]6[C@H](OC)[C@@H]5[C@](O)(C[C@@H]6OC)[C@@](O)([C@@H](OC)[C@H]23)[C@@H]14 [MLA, Methyllycaconitine]	–	reversed the effect of β-EP; also recorded: moderate or strong inhibitory effect	reversed the effect of β-EP; also recorded: moderate or strong inhibitory effect	stopped the effect of β-EP; also recorded: prevented, at various degrees	–
pituitary adenylate cyclase-activating peptide [PACAP]	moderate effect	–	–	–	–

Source: patent US20120114706A1, “Endorphin Therapy Compositions and Methods of Use Thereof” (priority 2008, published 2012)
